What is called DC50 is the midpoint of the concentration-degradation curve. What is called Dmax is the largest share of the target that was removed.

This note sets out measurements from patent US20230265116A1, “DEGRADATION OF (EGFR) BY CONJUGATION OF EGFR INHIBITORS WITH E3 LIGASE LIGAND AND METHODS OF USE” (BEIGENE, LTD., priority 2020, published 2023).

Test [1] deals with T1, EGFR L858R/T790M/C797S (BaF3-LTC cells) (Homo sapiens, UniProt P00533, C797S/L858R/T790M).
T1 construct: expressed in transfected cells; host or cells: BaF3
As to the kind of experiment: EGFR degradation HTRF assay, BaF3-LTC cells. In kind it is cell-based. The conditions noted are these: BaF3-LTC cells; for DC50: EGFR degradation, IC50 (DC50) from curve fit, read-out: DC50(nM) BaF3-LTC; for Dmax: maximum percentage of inhibition (degradation), read-out: Dmax (%) BaF3-LTC. Summed up: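 EGFR remaining after a 16 h, 37 °C exposure (8 doses, 5-fold steps from 10 uM final, 0.2% DMSO) was quantified by HTRF antibodies in cell lysate. Percent inhibition relative to DMSO control was fitted by four-parameter logistic to give DC50; Dmax denotes maximal degradation.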

For test [2], the system named is EGFR Del19/T790M/C797S (H1975-clone #28). As to the kind of experiment: EGFR degradation HTRF assay, H1975-clone #28 DTC cells. The settings on record: H1975 # 28 DTC cells; for DC50: EGFR degradation, IC50 (DC50) from curve fit, read-out: DC50(nM) H1975 # 28 DTC; for Dmax (%) H1975 # 28 DTC: maximum percentage of inhibition (degradation). In kind it is cell-based. Summed up: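 Engineered H1975 lines (lentiviral mutant EGFR, endogenous EGFR knocked out, single-clone verified); 16h compound, 37° C., 5% CO2, 0.2% DMSO; 8-point 5-fold series from 10 uM final. HTRF lysate read; % degradation vs DMSO, four-parameter fit → DC50, Dmax.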
On the technique in general: TR-FRET usually uses a lanthanide donor and a delayed reading to cut background.

T1 sequence (P00533 25-1210 T790M/C797S/L858R): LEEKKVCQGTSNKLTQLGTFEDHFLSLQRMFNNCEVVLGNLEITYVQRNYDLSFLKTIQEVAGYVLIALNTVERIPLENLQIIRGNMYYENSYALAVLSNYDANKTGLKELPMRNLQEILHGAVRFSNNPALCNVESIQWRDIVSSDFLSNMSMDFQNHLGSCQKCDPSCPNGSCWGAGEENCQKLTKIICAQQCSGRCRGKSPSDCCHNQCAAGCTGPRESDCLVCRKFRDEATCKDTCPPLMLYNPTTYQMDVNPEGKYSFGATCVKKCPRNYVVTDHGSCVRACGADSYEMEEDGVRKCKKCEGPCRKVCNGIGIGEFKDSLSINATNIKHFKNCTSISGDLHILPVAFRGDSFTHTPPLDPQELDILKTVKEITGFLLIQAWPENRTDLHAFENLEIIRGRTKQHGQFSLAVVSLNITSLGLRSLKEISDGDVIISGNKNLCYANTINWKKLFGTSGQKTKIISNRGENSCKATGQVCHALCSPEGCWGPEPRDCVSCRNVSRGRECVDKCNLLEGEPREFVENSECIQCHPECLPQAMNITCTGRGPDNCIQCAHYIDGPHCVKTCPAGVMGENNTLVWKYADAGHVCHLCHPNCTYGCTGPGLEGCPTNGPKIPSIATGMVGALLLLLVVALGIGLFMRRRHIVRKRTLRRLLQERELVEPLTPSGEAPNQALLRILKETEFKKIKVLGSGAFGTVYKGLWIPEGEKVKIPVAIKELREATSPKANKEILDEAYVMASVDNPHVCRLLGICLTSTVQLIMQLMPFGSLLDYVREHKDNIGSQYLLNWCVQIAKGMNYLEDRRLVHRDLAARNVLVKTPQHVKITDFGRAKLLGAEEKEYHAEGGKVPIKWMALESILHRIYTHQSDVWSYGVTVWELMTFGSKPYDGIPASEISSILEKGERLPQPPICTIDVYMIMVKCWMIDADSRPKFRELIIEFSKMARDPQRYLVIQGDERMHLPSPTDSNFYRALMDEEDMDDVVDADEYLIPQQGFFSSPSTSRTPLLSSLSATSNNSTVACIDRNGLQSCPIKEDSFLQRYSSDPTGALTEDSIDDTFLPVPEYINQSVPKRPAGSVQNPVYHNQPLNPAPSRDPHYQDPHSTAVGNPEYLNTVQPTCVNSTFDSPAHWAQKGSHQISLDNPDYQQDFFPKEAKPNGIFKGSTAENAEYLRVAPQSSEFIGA

For `CCOc1cc(N2CCC(N3CCN(CCCOc4cc(F)c([C@H]5CCC(=O)NC5=O)c(F)c4)CC3)CC2)c(CC)cc1Nc1ncc(Br)c(Nc2ccc3c(=O)n(CC)ncc3c2P(C)(C)=O)n1` [Example 735, (R)-3-(4-(3-(4-(1-(4-((5-bromo-4-((5-(dimethylphosphoryl)-2-ethyl-1-oxo-1,2-dihydrophthalazin-6-yl)amino)pyrimidin-2-yl)amino)-5-ethoxy-2-ethylphenyl)piperidin-4-yl)piperazin-1-yl)propoxy)-2,6-difluorophenyl)piperidine-2,6-dione], in test [1], the DC50 amounted to 18 nM and the Dmax came out at 87.4%. Besides, in test [2], the half-maximal degradation concentration (DC50) stood at 0.641 nM and the “Dmax (%) H1975 # 28 DTC” value was determined as 80.09%.

On to `CCOc1cc(N2CCC(N3CCN(CCc4c(F)ccc5c4n(C)c(=O)n5C4CCC(=O)NC4=O)CC3)CC2)c(CC)cc1Nc1ncc(Br)c(Nc2ccc3nc(CC)ncc3c2P(C)(C)=O)n1` (centres unmarked) [Example 736, 3-(4-(2-(4-(1-(4-((5-bromo-4-((5-(dimethylphosphoryl)-2-ethylquinazolin-6-yl)amino)pyrimidin-2-yl)amino)-5-ethoxy-2-ethylphenyl)piperidin-4-yl)piperazin-1-yl)ethyl)-5-fluoro-3-methyl-2-oxo-2,3-dihydro-1H-benzol[d]imidazol-1-yl)piperidine-2,6-dione], for which the DC50 in test [1] came out at 4.01 nM. For the same compound, in test [2], the half-maximal degradation concentration (DC50) is 0.564 nM and the “Dmax (%) H1975 # 28 DTC” value worked out at 81.93%.

`CCOc1cc(N2CCC(N3CCN(CCc4cccc5c4n(CC)c(=O)n5C4CCC(=O)NC4=O)CC3)CC2)c(CC)cc1Nc1ncc(Br)c(Nc2ccc3nc(CC)ncc3c2P(C)(C)=O)n1` (centres unmarked) [Example 737, 3-(4-(2-(4-(1-(4-((5-bromo-4-((5-(dimethylphosphoryl)-2-ethylquinazolin-6-yl)amino)pyrimidin-2-yl)amino)-5-ethoxy-2-ethylphenyl)piperidin-4-yl)piperazin-1-yl)ethyl)-3-ethyl-2-oxo-2,3-dihydro-1H-benzo[d]imidazol-1-yl)piperidine-2,6-dione]: in test [1], the DC50 came out at 3.72 nM. In test [2], the DC50 is 0.944 nM and the “Dmax (%) H1975 # 28 DTC” value is on record as 78.21%.

Take `CCOc1cc(N2CCC(N3CCN(CCc4cc(F)c([C@H]5CCC(=O)NC5=O)c(F)c4)CC3)CC2)c(CC)cc1Nc1ncc(Br)c(Nc2ccc3nc(C)ncc3c2P(C)(C)=O)n1` [Example 738, (R)-3-(4-(2-(4-(1-(4-((5-bromo-4-((5-(dimethylphosphoryl)-2-methylquinazolin-6-yl)amino)pyrimidin-2-yl)amino)-5-ethoxy-2-ethylphenyl)piperidin-4-yl)piperazin-1-yl)ethyl)-2,6-difluorophenyl)piperidine-2,6-dione]: the DC50 in test [1] worked out at 6.73 nM; in test [2] it was 0.64 nM. The “Dmax (%) H1975 # 28 DTC” value in test [2] was 84.3%.

As to `CCc1cc(Nc2ncc(Br)c(Nc3ccc4nc(C)ncc4c3P(C)(C)=O)n2)c(OC)cc1N1CCC(N2CCN(CCc3cc(F)c([C@H]4CCC(=O)NC4=O)c(F)c3)CC2)CC1` [Example 739, (R)-3-(4-(2-(4-(1-(4-((5-bromo-4-((5-(dimethylphosphoryl)-2-methylquinazolin-6-yl)amino)pyrimidin-2-yl)amino)-2-ethyl-5-methoxyphenyl)piperidin-4-yl)piperazin-1-yl)ethyl)-2,6-difluorophenyl)piperidine-2,6-dione], in test [1], the DC50 was found to be 2.89 nM. Moreover, in test [2], the 50% degradation concentration (DC50) worked out at 0.614 nM and the “Dmax (%) H1975 # 28 DTC” value is 85.55%.

For `CCc1cc(Nc2ncc(Br)c(Nc3ccc4nc(C)ncc4c3P(C)(C)=O)n2)c(OC)cc1N1CCC(N2CCN(C(=O)[C@H]3CN(c4cc(F)c([C@H]5CCC(=O)NC5=O)c(F)c4)CC3(C)C)CC2)CC1` [Example 740, (R)-3-(4-((R)-4-(4-(1-(4-((5-bromo-4-((5-(dimethylphosphoryl)-2-methylquinazolin-6-yl)amino)pyrimidin-2-yl)amino)-2-ethyl-5-methoxyphenyl)piperidin-4-yl)piperazine-1-carbonyl)-3,3-dimethylpyrrolidin-1-yl)-2,6-difluorophenyl)piperidine-2,6-dione], the DC50 in test [1] was determined as 4.11 nM. In addition, in test [2], the DC50 was 0.717 nM and the “Dmax (%) H1975 # 28 DTC” value is on record as 87.27%.

As for `CCc1cc(Nc2ncc(Br)c(Nc3ccc4nc(C5CC5)ccc4c3P(C)(C)=O)n2)c(OC)cc1N1CCC(N2CCN(CCc3cc(F)c([C@H]4CCC(=O)NC4=O)c(F)c3)CC2)CC1` [Example 741, (R)-3-(4-(2-(4-(1-(4-((5-bromo-4-((2-cyclopropyl-5-(dimethylphosphoryl)quinolin-6-yl)amino)pyrimidin-2-yl)amino)-2-ethyl-5-methoxyphenyl)piperidin-4-yl)piperazin-1-yl)ethyl)-2,6-difluorophenyl)piperidine-2,6-dione], in test [1], the half-maximal degradation concentration (DC50) is 11.2 nM. Further, in test [2], the DC50 amounted to 0.761 nM and the “Dmax (%) H1975 # 28 DTC” value was 80.67%.

Consider `CCOc1cc(N2CCC(N3CCN(CCc4cc(F)c(F)c5c4n(CC)c(=O)n5C4CCC(=O)NC4=O)CC3)CC2)c(CC)cc1Nc1ncc(Br)c(Nc2ccc3nc(CC)ccc3c2P(C)(C)=O)n1` (centres unmarked) [Example 742, 3-(4-(2-(4-(1-(4-((5-bromo-4-((5-(dimethylphosphoryl)-2-ethylquinolin-6-yl)amino)pyrimidin-2-yl)amino)-5-ethoxy-2-ethylphenyl)piperidin-4-yl)piperazin-1-yl)ethyl)-3-ethyl-6,7-difluoro-2-oxo-2,3-dihydro-1H-benzo[d]imidazol-1-yl)piperidine-2,6-dione], for which, in test [1], the DC50 came out at 36.5 nM. Also, in test [2], the half-maximal degradation concentration (DC50) came out at 3.52 nM and the “Dmax (%) H1975 # 28 DTC” value is given as 68.91%.

For `CCOc1cc(N2CCC(N3CCN(CCc4cc(F)c(F)c5c4n(CC)c(=O)n5C4CCC(=O)NC4=O)CC3)CC2)c(CC)cc1Nc1ncc(Br)c(Nc2ccc3c(=O)n(CC)ncc3c2P(C)(C)=O)n1` (centres unmarked) [Example 743, 3-(4-(2-(4-(1-(4-((5-bromo-4-((5-(dimethylphosphoryl)-2-ethyl-1-oxo-1,2-dihydrophthalazin-6-yl)amino)pyrimidin-2-yl)amino)-5-ethoxy-2-ethylphenyl)piperidin-4-yl)piperazin-1-yl)ethyl)-3-ethyl-6,7-difluoro-2-oxo-2,3-dihydro-1H-benzo[d]imidazol-1-yl)piperidine-2,6-dione], in test [1], the DC50 was determined as 55.9 nM and the Dmax was determined as 79.7%. Also, in test [2], the DC50 was 2.42 nM and the “Dmax (%) H1975 # 28 DTC” value amounted to 75.96%.

`CCc1ccc2c(P(C)(C)=O)c(Nc3nc(Nc4cc(CC)c(N5CCC(N6CCN(CCc7cc(F)c([C@H]8CCC(=O)NC8=O)c(F)c7)CC6)CC5)cc4OC)ncc3Cl)ccc2n1` [Example 744, (R)-3-(4-(2-(4-(1-(4-((5-chloro-4-((5-(dimethylphosphoryl)-2-ethylquinolin-6-yl)amino)pyrimidin-2-yl)amino)-2-ethyl-5-methoxyphenyl)piperidin-4-yl)piperazin-1-yl)ethyl)-2,6-difluorophenyl)piperidine-2,6-dione]: the 50% degradation concentration (DC50) turned out to be 5.87 nM in test [1] and 0.653 nM in test [2]. For the same compound, the “Dmax (%) H1975 # 28 DTC” value in test [2] is recorded as 84.24%.
